Assays:
pigweed = assay: Test A preemergence; assay type: in vivo, Amaranthus retroflexus; settings: Amaranthus retroflexus, pre-emergence, 240 h, 0 to 100 scale (0 no effect, 100 complete control), read-out: Plant response rating, Pigweed; for pest or weed control at 125 g/ha: 125 g ai/ha; for pest or weed control at 500 g/ha: 500 g ai/ha, approx. 10 d
Summary of the method: (§1)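 Pre- and postemergence spray tests in a loam soil–sand mixture: seeded soil received a directed spray, while established seedlings 2–10 cm high at the one- to two-leaf stage were treated over the top. Compounds were carried in non-phytotoxic solvent with surfactant.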

barnyardgrass = assay: Test B flooded paddy test; assay type: in vivo, Echinochloa crus-galli; settings: Echinochloa crus-galli, 360 h, 125 g ai/ha, applied to paddy water at 2-leaf stage, visual rating after 13 to 15 d, scale 0 (no effect) to 100 (complete control), read-out: Plant response rating, Barnyardgrass, Flood
Summary of the method: (§2)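 Pots were flooded to 3 cm above the soil at treatment, and compounds were applied directly into the paddy water. That depth was held throughout. After 13 to 15 d in a greenhouse, plants were rated visually against untreated controls.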

corn = assay: Test A postemergence; assay type: in vivo, Zea mays; settings: Zea mays, post-emergence, 240 h, 0 to 100 scale (0 no effect, 100 complete control), approx. 10 d; for Corn plant response rating (crop injury, 0 = no effect, 100 = complete kill) at 125 g/ha: 125 g ai/ha; for Corn plant response rating (crop injury, 0 = no effect, 100 = complete kill) at 500 g/ha: 500 g ai/ha
Summary of the method: as §1

rice = assay: Test B flooded paddy test; assay type: in vivo, Oryza sativa; settings: Oryza sativa, 360 h, 125 g ai/ha, applied to paddy water at 2-leaf stage, visual rating after 13 to 15 d, scale 0 (no effect) to 100 (complete control), read-out: Plant response rating, Rice, Flood
Summary of the method: as §2

wheat = assay: Test A preemergence; assay type: in vivo, Triticum aestivum; settings: Triticum aestivum, pre-emergence, 240 h, 0 to 100 scale (0 no effect, 100 complete control), read-out: Plant response rating, Wheat; for plant injury at 125 g/ha: 125 g ai/ha; for plant injury at 500 g/ha: 500 g ai/ha, approx. 10 d
Summary of the method: as §1

ducksalad = assay: Test B flooded paddy test; assay type: in vivo, Heteranthera limosa; settings: Heteranthera limosa, 360 h, 125 g ai/ha, applied to paddy water at 2-leaf stage, visual rating after 13 to 15 d, scale 0 (no effect) to 100 (complete control), read-out: Plant response rating, Ducksalad, Flood
Summary of the method: as §2

Cn1nc(-c2ccc(F)cc2)nc1C(O)c1ccnc(C(F)(F)F)c1 (stereo not drawn) [Compound 14, α-[3-(4-fluorophenyl)-1-methyl-1H-1,2,4-triazol-5-yl]-2-(trifluoromethyl)-4-pyridinemethanol]
pest or weed control at 125 g/ha (pigweed): 90% | pest or weed control at 500 g/ha (pigweed): 100% | pest or weed control at 125 g/ha (barnyardgrass): 0% | Corn plant response rating (crop injury, 0 = no effect, 100 = complete kill) at 125 g/ha (corn): 10% | Corn plant response rating (crop injury, 0 = no effect, 100 = complete kill) at 500 g/ha (corn): 20% | plant injury at 125 g/ha (rice): 0% | plant injury at 125 g/ha (wheat): 0% | plant injury at 500 g/ha (wheat): 0% | pest or weed control at 125 g/ha (ducksalad): 0%

CCn1nc(-c2ccc(F)cc2)nc1C(O)c1ccnc(C(F)(F)F)c1 (stereo not drawn) [Compound 15, α-[1-Ethyl-3-(4-fluorophenyl)-1H-1,2,4-triazol-5-yl]-2-(trifluoromethyl)-4-pyridinemethanol]
pest or weed control at 125 g/ha (pigweed): 0% | pest or weed control at 500 g/ha (pigweed): 0% | pest or weed control at 125 g/ha (barnyardgrass): 0% | Corn plant response rating (crop injury, 0 = no effect, 100 = complete kill) at 125 g/ha (corn): 0% | Corn plant response rating (crop injury, 0 = no effect, 100 = complete kill) at 500 g/ha (corn): 10% | plant injury at 125 g/ha (rice): 0% | plant injury at 125 g/ha (wheat): 0% | plant injury at 500 g/ha (wheat): 0% | pest or weed control at 125 g/ha (ducksalad): 0%

CCCn1nc(-c2ccc(F)cc2)nc1Cc1ccnc(C(F)(F)F)c1 [Compound 17, 4-[[3-(4-fluorophenyl)-1-propyl-1H-1,2,4-triazol-5-yl]methyl]-2-(trifluoromethyl)pyridine]
pest or weed control at 125 g/ha (pigweed): 100% | pest or weed control at 500 g/ha (pigweed): 100% | pest or weed control at 125 g/ha (barnyardgrass): 10% | Corn plant response rating (crop injury, 0 = no effect, 100 = complete kill) at 125 g/ha (corn): 50% | Corn plant response rating (crop injury, 0 = no effect, 100 = complete kill) at 500 g/ha (corn): 70% | plant injury at 125 g/ha (rice): 15% | plant injury at 125 g/ha (wheat): 30% | plant injury at 500 g/ha (wheat): 70% | pest or weed control at 125 g/ha (ducksalad): 70%

From patent US10681909B2, “Herbicidal triazoles” (FMC Corporation, priority 2014, dated 2020)
